ChEMBL document CHEMBL1150212, “Antitumor agents, 129. Tannins and related compounds as selective cytotoxic agents” (1992)

What was measured:
Type in all cases: functional
Conditions in all cases: read-out: ED50 (the source's name)
[1] = Cytotoxicity against human […] cells by tetrazolium salt-based colorimetric assay
KB = assay: Cytotoxicity against human KB cells by tetrazolium salt-based colorimetric assay
A549 = assay: Cytotoxicity against human A549 cells by tetrazolium salt-based colorimetric assay
HCT-8 = assay: Cytotoxicity against human HCT8 cells by tetrazolium salt-based colorimetric assay
TE-671 = assay: Cytotoxicity against human TE671 cells by tetrazolium salt-based colorimetric assay

| SMILES | EC50 [1] | EC50 (KB) | EC50 (A549) | EC50 (HCT-8) | EC50 (TE-671) |
| --- | --- | --- | --- | --- | --- |
| O=C(O[C@@H]1O[C@@H]2COC(=O)c3cc(O)c(O)c(O)c3-c3c(cc(Oc4c(C(=O)O)cc(O)c(O)c4O)c(O)c3O)C(=O)O[C@H]([C@H]1O)[C@@H]2O)c1cc(O)c(O)c(O)c1 [MALLOTINIC ACID] | > 10 µg/mL | > 10 µg/mL | > 10 µg/mL | > 10 µg/mL | > 10 µg/mL |
| O=C1O[C@H]2[C@@H]3OC(=O)c4cc(Oc5c(C(=O)O)cc(O)c(O)c5O)c(O)c(O)c4-c4c(cc(O)c(O)c4O)C(=O)OC[C@H]2O[C@@H](OC(=O)c2cc(O)c(O)c(O)c2)[C@@H]3OC(=O)c2cc(O)c(O)c3c2[C@@H]2C1=CC(=O)[C@](O)(O3)C2(O)O [MALLOTUSINIC ACID] | > 10 µg/mL | > 10 µg/mL | > 10 µg/mL | > 10 µg/mL | > 10 µg/mL |
| O=C1OC[C@H]2OC(=O)c3cc(O)c(O)c(O)c3-c3c(O)c(O)c(O)c4c3C(=O)O[C@H]([C@H]3OC(=O)C5C4=C(O)C(=O)C54Oc5cc(O)c6c(c5[C@H]34)O[C@H](c3ccc(O)c(O)c3)[C@@H](O)C6)[C@@H]2OC(=O)c2cc(O)c(O)c(O)c2-c2c1cc(O)c(O)c2O [MONGOLICAIN A] | > 10 µg/mL | > 10 µg/mL | > 10 µg/mL | > 10 µg/mL | > 10 µg/mL |
| O=C1OC[C@H]2OC(O)[C@@H]3OC(=O)c4cc(O)c(O)c(O)c4-c4c(cc(O)c(O)c4O)C(=O)O[C@H]3[C@@H]2OC(=O)c2cc(O)c(O)c(O)c2-c2c1cc(O)c(O)c2O (stereo not given in full) [PEDUNCULAGIN] | 2.74 µg/mL | > 10 µg/mL | > 10 µg/mL | > 10 µg/mL | > 10 µg/mL |
| O=C(OC[C@H]1O[C@@H](OC(=O)c2cc(O)c(O)c(O)c2)[C@H](OC(=O)c2cc(O)c(O)c(O)c2)[C@@H](OC(=O)c2cc(O)c(O)c(O)c2)[C@@H]1OC(=O)c1cc(O)c(O)c(O)c1)c1cc(O)c(O)c(O)c1 [PENTAGALLOYL GLUCOSE] | 5.01 µg/mL | > 10 µg/mL | > 10 µg/mL | > 10 µg/mL | > 10 µg/mL |
| Oc1cc(O)c2c(c1)O[C@@]1(c3ccc(O)c(O)c3)Oc3cc(O)c4c(c3[C@@H]2[C@H]1O)O[C@H](c1ccc(O)c(O)c1)[C@H](O)C4 [PROANTHOCYANIDIN A2] | 5.5 µg/mL | > 10 µg/mL | > 10 µg/mL | > 10 µg/mL | > 10 µg/mL |
| Oc1cc(O)c2c(c1)O[C@H](c1ccc(O)c(O)c1)[C@H](O)[C@H]2c1c(O)cc(O)c2c1O[C@H](c1ccc(O)c(O)c1)[C@H](O)C2 [PROCYANIDIN B2] | > 10 µg/mL | > 10 µg/mL | > 10 µg/mL | > 10 µg/mL | > 10 µg/mL |
| Oc1cc(O)c2c(c1)O[C@H](c1ccc(O)c(O)c1)[C@H](O)[C@H]2c1c(O)cc(O)c2c1O[C@H](c1ccc(O)c(O)c1)[C@H](O)[C@H]2c1c(O)cc(O)c2c1O[C@H](c1ccc(O)c(O)c1)[C@H](O)C2 [PROCYANIDIN C1] | > 10 µg/mL | > 10 µg/mL | > 10 µg/mL | > 10 µg/mL | > 10 µg/mL |
| O=C1O[C@H]([C@@H]2OC(=O)c3cc(O)c(O)c(O)c3-c3c(O)c(O)c4oc(=O)c5c(c(O)c(O)c6oc(=O)c3c4c65)-c3c(cc(O)c(O)c3O)C(=O)OC[C@H]2O)[C@@H]2OC(=O)c3c(c(O)c(O)c(O)c3[C@H]2O)-c2c1cc(O)c(O)c2O [PUNICACORTEIN C] | 3.86 µg/mL | > 10 µg/mL | > 10 µg/mL | > 10 µg/mL | > 10 µg/mL |
| O=C(O[C@@H]1O[C@@H]2COC(=O)c3cc(O)c(O)c(O)c3-c3c(cc(O)c(O)c3O)C(=O)O[C@H]([C@H]1OC(=O)c1cc(O)c(O)c(O)c1)[C@@H]2OC(=O)c1cc(O)c(O)c(O)c1)c1cc(O)c(O)c(O)c1 [PUNICAFOLIN] | > 10 µg/mL | > 10 µg/mL | > 10 µg/mL | > 10 µg/mL | > 10 µg/mL |
| O=C1O[C@@H]2[C@@H](OC(=O)c3cc(O)c(O)c(O)c3-c3c1cc(O)c(O)c3O)[C@H](O)O[C@@H]1COC(=O)c3cc(O)c(O)c(O)c3-c3c(O)c(O)c4oc(=O)c5c(c(O)c(O)c6oc(=O)c3c4c65)-c3c(cc(O)c(O)c3O)C(=O)O[C@@H]21 [PUNICALAGIN] | > 10 µg/mL | > 10 µg/mL | > 10 µg/mL | > 10 µg/mL | > 10 µg/mL |
| O=C1OC[C@H]2O[C@@H](O)[C@H](O)[C@@H](O)[C@@H]2OC(=O)c2cc(O)c(O)c(O)c2-c2c(O)c(O)c3oc(=O)c4c(c(O)c(O)c5oc(=O)c2c3c54)-c2c1cc(O)c(O)c2O [PUNICALIN] | > 10 µg/mL | > 10 µg/mL | > 10 µg/mL | > 10 µg/mL | > 10 µg/mL |
| O=C(O[C@@H]1O[C@@H]2COC(=O)c3cc(O)c(O)c(O)c3-c3c(cc(O)c(O)c3O)C(=O)O[C@H]2[C@H](O)[C@H]1O)c1cc(O)c(O)c(O)c1 [STRICTININ] | 4.86 µg/mL | > 10 µg/mL | > 10 µg/mL | > 10 µg/mL | > 10 µg/mL |
